Legend:
rat bladder = experiment: Ovalbumin-sensitized rat model of inflammation-induced bladder hyperactivity (cystometry); type: in vivo, Sprague-Dawley rats; conditions: for NVC/minute: 60 minutes prior
Description: Sprague-Dawley rats (n=50; […]) were utilized for this study. The animals were divided into 5 groups (n=10). The first group served as the control and the second group was sensitized with ovalbumin (OA). The third, fourth, and fifth groups were also sensitized as described but subjected to oral gavaging with Compound 1 prior to acute ovalbumin challenge.
Sensitization of the animals was accomplished with an intraperitoneal injection of a mixture of 1 mg OA and 100 mg aluminum hydroxide suspended in 1 mL of saline. Fourteen days later, these sensitized rats were anaesthetized with a subcutaneous injection of urethane (1.2 g/kg) for intravesical OA (10 mg/mL) administration and evaluation of bladder hyperactivity. The animals in group 1 received saline (control), group 2 animals received about 2 mL of OA (10 mg/mL OA in sterile saline) and animal groups 3-5 animals received oral 1 (10, 30, 50 mg/kg in gum acacia suspension) 60 minutes prior to acute OA challenge (2 mL of 10 mg/mL OA).
All animals were subjected to evaluation of bladder hyperactivity. Briefly, a 1 cm incision was made along the centerline of the lower ventral abdomen. The bladder was exteriorized, and catheterized by means of a polyethylene tube (PE 50, Clay Adams) inserted into the bladder dome and sutured in place using a 2-0 braided silk suture. The bladder was returned to the abdomen, with the catheter line escaping through the incision. The catheter was then connected to a pressure transducer (UFI, Morro Bay, Calif.) and in turn, connected to an infusion pump (Harvard Apparatus, MA). During the continuous filling bladder cystometry, the pressure was recorded with the transducer using the program LabVIEW (National Instruments, TX).
For cystometry (See, Chuang Y C, Chancellor M B, Seki S, Yoshimura N, Tyagi P, Huang L, Lavelle J P, De Groat W C and Fraser M O: Intravesical protamine sulfate and potassium chloride as a model for bladder hyperactivity. Urology (2003) 61:664-70), the bladder was first infused with warm 0.9% saline (37° C.) at 40 μL/min (2.4 mL/hr) and at least 20 minutes of stable voiding cycles were recorded during infusion. This process was followed by intravesical infusion of OA (10 mg/mL) and bladder contractions were recorded. Frequency of contractions (voids), inter-contractile interval (ICI), and non-voiding contractions (NVC) were calculated from these recordings.

[1] = Form present in human plasma; type: in vivo; conditions: metabolite of compound 1, human plasma

SMILES	NVC/minute (rat bladder; Group 3: OA (10 mg/mL) infusion after oral 10 mg/kg, n = 10, NS compared to Group 2 (OA alone 0.9400 ± 0.2473))	NVC/minute (rat bladder; Group 4: OA (10 mg/mL) infusion after oral 30 mg/kg, n = 9, P < 0.05 compared to Group 2)	NVC/minute (rat bladder; Group 5: OA (10 mg/mL) infusion after oral 50 mg/kg, n = 9, P < 0.05 compared to Group 2)	voiding frequency (rat bladder; control (group 1) versus treatment groups (2-5))	OA-induced changes in NVC and ICI (rat bladder; pre-treatment, oral 10, 30, 50 mg/kg)	protection against OA-induced changes (increase in NVC, decrease in ICI) (rat bladder; pre-treatment, preferably at 30 and 50 mg/kg)	form in human plasma [1]
CCCc1c(SCCCOc2ccc(C(C)=O)c(OCCCC(=O)O)c2CCC)ccc(C(C)=O)c1O [Compound 1, 4-[6-acetyl-3-[3-(4-acetyl-3-hydroxy-2-propylphenylthio)propoxy]-2-propylphenoxy]butyric acid]	0.4700 ± 0.1221 NVC/minute	0.3444 ± 0.06894 NVC/minute	0.1778 ± 0.08296 NVC/minute	No significant differences	dose-dependent inhibition	significant protection	–
CCCc1c(SCCCOc2ccc(C(C)O)c(OCCCC(=O)O)c2CCC)ccc(C(C)=O)c1O (stereo not shown) [Compound 2]	–	–	–	–	–	–	dominant form
